From ChEMBL document CHEMBL1201862, “PubChem BioAssay data set” (2004)
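A five-concentration, 48-hour dose response in 96-well plates underlies each endpoint, interpolated linearly between surrounding concentrations. Here, GI50 denotes the concentration required for 50% inhibition of growth.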 Active and inactive are the calls of the source. Rule as the data show it: active = GI50 up to about 1.1 µM and inactive = higher.

Columns and labels:
Assay in all cases: NCI tumour cell line growth inhibition, 48 h
NCI/ADR-RES = tested on: NCI/ADR-RES
K562 = tested on: K562
TK-10 = tested on: TK-10
NCI-H23 = tested on: NCI-H23
OVCAR-4 = tested on: OVCAR-4
OVCAR-5 = tested on: OVCAR-5
DU-145 = tested on: DU-145
Hs-578T = tested on: Hs-578T
SK-MEL-28 = tested on: SK-MEL-28
PC-3 = tested on: PC-3
SK-OV-3 = tested on: SK-OV-3
NCI-H226 = tested on: NCI-H226
MDA-N = tested on: MDA-N
SNB-75 = tested on: SNB-75
786-0 = tested on: 786-0
BT-549 = tested on: BT-549
COLO 205 = tested on: COLO 205
SF-268 = tested on: SF-268
M14 = tested on: M14
DMS-273 = tested on: DMS-273

Measured: GI50

Nc1ncnc2nn(C3OC(CO)C(O)C3O)nc12 (configuration not stated)
inactive: NCI/ADR-RES 9.73 µM | K562 5.46 µM | TK-10 3.56 µM | NCI-H23 20.3 µM | OVCAR-4 28 µM | OVCAR-5 9.06 µM | DU-145 5.26 µM | Hs-578T 31.5 µM | SK-MEL-28 36.6 µM | PC-3 17.3 µM | SK-OV-3 2.67 µM | NCI-H226 5.36 µM | MDA-N 10.3 µM | SNB-75 9.77 µM | 786-0 10.4 µM | BT-549 24.2 µM | COLO 205 5.06 µM | SF-268 20.4 µM | M14 6.82 µM

CC1=C(C(=O)NCc2ccccc2)C(c2ccc(Cl)c(Cl)c2)C(C(=O)NCc2ccccc2)=C(C)N1
inactive: DMS-273 > 100 µM | K562 > 100 µM | TK-10 > 100 µM | NCI-H23 > 100 µM | OVCAR-4 > 100 µM | OVCAR-5 > 100 µM | SK-MEL-28 > 100 µM | NCI-H226 > 100 µM | SNB-75 > 100 µM | 786-0 > 100 µM | SF-268 > 100 µM | M14 > 100 µM

O=C1C2C(C(=O)N1c1ccccc1)C1([N+](=O)[O-])C=C3c4ccccc4N(C(=O)c4ccccc4)C32C2C(=O)N(c3ccccc3)C(=O)C21 (configuration not stated)
inactive: DMS-273 > 100 µM | K562 > 100 µM | TK-10 > 100 µM | NCI-H23 > 100 µM | OVCAR-5 > 100 µM | SK-MEL-28 > 100 µM | SK-OV-3 > 100 µM | SNB-75 > 100 µM | 786-0 > 100 µM | COLO 205 > 100 µM | SF-268 > 100 µM | M14 > 100 µM

C\C=C/C=C/C=C/C(=O)O
inactive: DMS-273 > 100 µM | K562 > 100 µM | NCI-H23 > 100 µM | OVCAR-4 > 100 µM | OVCAR-5 > 100 µM | SK-MEL-28 > 100 µM | SK-OV-3 > 100 µM | NCI-H226 > 100 µM | SNB-75 > 100 µM | 786-0 > 100 µM | COLO 205 > 100 µM | SF-268 > 100 µM | M14 > 100 µM

N#CC1=C(Cl)NC(Cl)=C(C#N)C1c1ccc(Cl)cc1
inactive: DMS-273 17.1 µM | K562 11.9 µM | TK-10 18 µM | NCI-H23 17.9 µM | OVCAR-5 34 µM | SK-MEL-28 22.9 µM | SK-OV-3 17.2 µM | NCI-H226 20.5 µM | SNB-75 14.9 µM | 786-0 15.8 µM | COLO 205 16.5 µM | SF-268 18.7 µM | M14 16.8 µM

O=c1c2ccccc2nc(Cc2nc(-c3ccc(Cl)cc3)cs2)n1-c1ccc(Cl)cc1
inactive: NCI/ADR-RES 57.5 µM | K562 5.01 µM | TK-10 > 100 µM | NCI-H23 56.8 µM | OVCAR-4 76.2 µM | OVCAR-5 27.1 µM | DU-145 55.8 µM | Hs-578T > 100 µM | SK-MEL-28 23.8 µM | PC-3 48 µM | SK-OV-3 > 100 µM | NCI-H226 88.5 µM | MDA-N 41.4 µM | SNB-75 79.6 µM | 786-0 81.3 µM | BT-549 82.2 µM | COLO 205 49.5 µM | SF-268 62.4 µM | M14 > 100 µM

C[C@@H]1CC(=O)C[C@@H]2CC[C@H]3[C@@H]4CC[C@H](OC(=O)c5cccc6cc7ccccc7nc56)[C@H]4CC[C@@H]3[C@H]21
inactive: NCI/ADR-RES 20.9 µM | K562 8 µM | TK-10 27.9 µM | NCI-H23 14.7 µM | OVCAR-4 13.6 µM | OVCAR-5 18.8 µM | DU-145 14 µM | Hs-578T 21.6 µM | SK-MEL-28 28.6 µM | PC-3 12.1 µM | SK-OV-3 25.2 µM | NCI-H226 26.5 µM | MDA-N 13.5 µM | SNB-75 15.6 µM | 786-0 11.4 µM | BT-549 26.1 µM | COLO 205 22.2 µM | SF-268 6.4 µM | M14 15.5 µM

Oc1c(C2=NNC(c3ccc(Cl)cc3Cl)C2)ccc2ccccc12 (configuration not stated)
inactive: NCI/ADR-RES 22 µM | K562 23.1 µM | TK-10 66.2 µM | NCI-H23 68.1 µM | OVCAR-4 58.6 µM | OVCAR-5 42.7 µM | DU-145 64.9 µM | Hs-578T 35.6 µM | SK-MEL-28 45.7 µM | PC-3 31.6 µM | SK-OV-3 46.3 µM | NCI-H226 50.4 µM | MDA-N 19.5 µM | SNB-75 39.9 µM | 786-0 31.5 µM | BT-549 69.2 µM | COLO 205 32 µM | SF-268 33 µM | M14 26.5 µM

CC1(O)CC2C(CC1SC1CC3C(CC1(C)O)C3(C)C)C2(C)C (configuration not stated)
inactive: DMS-273 41.5 µM | K562 30.5 µM | TK-10 69.7 µM | NCI-H23 41.7 µM | OVCAR-4 21.7 µM | OVCAR-5 78.9 µM | SK-MEL-28 > 100 µM | SK-OV-3 54.7 µM | NCI-H226 65.6 µM | SNB-75 27.9 µM | 786-0 43.6 µM | COLO 205 35.5 µM | SF-268 > 100 µM | M14 48.2 µM

Fc1cccc(/C=N/C23CC4CC(CC(C4)C2)C3)c1
inactive: DMS-273 > 100 µM | K562 > 100 µM | TK-10 > 100 µM | NCI-H23 > 100 µM | OVCAR-4 > 100 µM | OVCAR-5 > 100 µM | SK-MEL-28 > 100 µM | SK-OV-3 > 100 µM | NCI-H226 > 100 µM | SNB-75 > 100 µM | 786-0 > 100 µM | COLO 205 > 100 µM | SF-268 > 100 µM | M14 > 100 µM

COc1ccc2c(c1)C(N)=C(c1ccccc1OC)C2=O
inactive: NCI/ADR-RES > 100 µM | K562 > 100 µM | TK-10 > 100 µM | NCI-H23 > 100 µM | OVCAR-4 99.5 µM | OVCAR-5 > 100 µM | DU-145 > 100 µM | Hs-578T > 100 µM | SK-MEL-28 > 100 µM | PC-3 85.7 µM | SK-OV-3 > 100 µM | NCI-H226 > 100 µM | MDA-N > 100 µM | SNB-75 64.3 µM | 786-0 > 100 µM | BT-549 > 100 µM | COLO 205 > 100 µM | SF-268 > 100 µM | M14 > 100 µM

Cc1c(C(=O)/C=C/c2ccccc2)[n+]([O-])c2ccccc2[n+]1[O-]
inactive: DMS-273 15.8 µM | K562 15.6 µM | TK-10 26.2 µM | NCI-H23 15.7 µM | OVCAR-4 15 µM | OVCAR-5 16.7 µM | SK-MEL-28 16.7 µM | SK-OV-3 20.1 µM | NCI-H226 20.8 µM | SNB-75 23.6 µM | 786-0 17.2 µM | COLO 205 16.3 µM | SF-268 19.7 µM | M14 15.3 µM
